Experimental data: PubChem BioAssay (NCI)
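Assay format: 96-well plates, 48-hour exposure. The concentration for full growth arrest is given as TGI.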

Assays:
Experiment in all cases: NCI anticancer screen, dose series, 48 h
SK-MEL-2 melanoma = tested on: SK-MEL-2 melanoma
HOP-92 NSCLC = tested on: HOP-92 NSCLC
COLO 205 colon = tested on: COLO 205 colon
786-0 renal = tested on: 786-0 renal
OVCAR-5 ovarian = tested on: OVCAR-5 ovarian
MDA-MB-231 breast = tested on: MDA-MB-231 breast
SNB-19 CNS = tested on: SNB-19 CNS
T-47D breast = tested on: T-47D breast
A549 NSCLC = tested on: A549 NSCLC
IGROV1 ovarian = tested on: IGROV1 ovarian
HOP-62 NSCLC = tested on: HOP-62 NSCLC
UACC-62 melanoma = tested on: UACC-62 melanoma
MOLT-4 leukemia = tested on: MOLT-4 leukemia
MDA-MB-435 = tested on: MDA-MB-435
HCC-2998 colon = tested on: HCC-2998 colon
M14 melanoma = tested on: M14 melanoma
BT-549 breast = tested on: BT-549 breast
HT29 colon = tested on: HT29 colon
OVCAR-4 ovarian = tested on: OVCAR-4 ovarian
SF-539 CNS = tested on: SF-539 CNS
KM12 colon = tested on: KM12 colon
SK-MEL-5 melanoma = tested on: SK-MEL-5 melanoma
SW-620 colon = tested on: SW-620 colon
RPMI-8226 leukemia = tested on: RPMI-8226 leukemia
TK-10 renal = tested on: TK-10 renal
MCF7 breast = tested on: MCF7 breast
A498 renal = tested on: A498 renal
MALME-3M melanoma = tested on: MALME-3M melanoma
HL-60(TB) leukemia = tested on: HL-60(TB) leukemia
K-562 leukemia = tested on: K-562 leukemia
NCI-H226 lung = tested on: NCI-H226 lung
HS 578T breast = tested on: HS 578T breast
SF-268 CNS = tested on: SF-268 CNS
RXF 393 renal = tested on: RXF 393 renal
NCI/ADR-RES ovarian = tested on: NCI/ADR-RES ovarian
OVCAR-3 ovarian = tested on: OVCAR-3 ovarian
CAKI-1 renal = tested on: CAKI-1 renal
U251 CNS = tested on: U251 CNS
NCI-H23 lung = tested on: NCI-H23 lung
UACC-257 melanoma = tested on: UACC-257 melanoma
ACHN renal = tested on: ACHN renal
OVCAR-8 ovarian = tested on: OVCAR-8 ovarian
SK-MEL-28 melanoma = tested on: SK-MEL-28 melanoma
CCRF-CEM leukemia = tested on: CCRF-CEM leukemia
SN12C renal = tested on: SN12C renal
SK-OV-3 ovarian = tested on: SK-OV-3 ovarian
HCT-116 colon = tested on: HCT-116 colon
PC-3 prostate = tested on: PC-3 prostate
NCI-H460 lung = tested on: NCI-H460 lung
SR leukemia = tested on: SR leukemia
MDA-N = tested on: MDA-N
DU-145 prostate = tested on: DU-145 prostate
LOX IMVI melanoma = tested on: LOX IMVI melanoma
EKVX NSCLC = tested on: EKVX NSCLC
NCI-H522 lung = tested on: NCI-H522 lung
SF-295 CNS = tested on: SF-295 CNS
HCT-15 colon = tested on: HCT-15 colon
SNB-75 CNS = tested on: SNB-75 CNS
UO-31 renal = tested on: UO-31 renal

SMILES: COc1cc2c(cc1OC)C(=O)N(c1ccc(OCCN3CCCC3)cc1)C2=O
- TGI (SK-MEL-2 melanoma): > 100 µM
- TGI (HOP-92 NSCLC): > 100 µM
- TGI (COLO 205 colon): > 100 µM
- TGI (786-0 renal): > 100 µM
- TGI (OVCAR-5 ovarian): > 100 µM
- TGI (MDA-MB-231 breast): > 100 µM
- TGI (SNB-19 CNS): > 100 µM
- TGI (T-47D breast): > 100 µM
- TGI (A549 NSCLC): > 100 µM
- TGI (IGROV1 ovarian): > 100 µM
- TGI (HOP-62 NSCLC): > 100 µM
- TGI (UACC-62 melanoma): > 100 µM
- TGI (MOLT-4 leukemia): > 100 µM
- TGI (MDA-MB-435): > 100 µM
- TGI (HCC-2998 colon): > 100 µM
- TGI (M14 melanoma): > 100 µM
- TGI (BT-549 breast): > 100 µM
- TGI (HT29 colon): > 100 µM
- TGI (OVCAR-4 ovarian): > 100 µM
- TGI (SF-539 CNS): > 100 µM
- TGI (KM12 colon): > 100 µM
- TGI (SK-MEL-5 melanoma): > 100 µM
- TGI (SW-620 colon): > 100 µM
- TGI (RPMI-8226 leukemia): > 100 µM
- TGI (TK-10 renal): > 100 µM
- TGI (MCF7 breast): > 100 µM
- TGI (A498 renal): > 100 µM
- TGI (MALME-3M melanoma): > 100 µM
- TGI (HL-60(TB) leukemia): > 100 µM
- TGI (K-562 leukemia): > 100 µM
- TGI (NCI-H226 lung): > 100 µM
- TGI (HS 578T breast): > 100 µM
- TGI (SF-268 CNS): > 100 µM
- TGI (RXF 393 renal): > 100 µM
- TGI (NCI/ADR-RES ovarian): > 100 µM
- TGI (OVCAR-3 ovarian): > 100 µM
- TGI (CAKI-1 renal): > 100 µM
- TGI (U251 CNS): > 100 µM
- TGI (NCI-H23 lung): > 100 µM
- TGI (UACC-257 melanoma): > 100 µM
- TGI (ACHN renal): > 100 µM
- TGI (OVCAR-8 ovarian): > 100 µM
- TGI (SK-MEL-28 melanoma): > 100 µM
- TGI (CCRF-CEM leukemia): > 100 µM
- TGI (SN12C renal): > 100 µM
- TGI (SK-OV-3 ovarian): > 100 µM
- TGI (HCT-116 colon): > 100 µM
- TGI (PC-3 prostate): > 100 µM
- TGI (NCI-H460 lung): > 100 µM
- TGI (SR leukemia): > 100 µM
- TGI (MDA-N): > 100 µM
- TGI (DU-145 prostate): > 100 µM
- TGI (LOX IMVI melanoma): > 100 µM
- TGI (EKVX NSCLC): > 100 µM
- TGI (NCI-H522 lung): > 100 µM
- TGI (SF-295 CNS): > 100 µM
- TGI (HCT-15 colon): > 100 µM

SMILES: c1ccc(-c2c(-c3[nH]c4ccccc4c3-c3ccccc3)[nH]c3ccccc23)cc1
- TGI (SK-MEL-2 melanoma): 22.1 µM
- TGI (HOP-92 NSCLC): 12.2 µM
- TGI (COLO 205 colon): 3.53 µM
- TGI (786-0 renal): 4.08 µM
- TGI (OVCAR-5 ovarian): 23.4 µM
- TGI (MDA-MB-231 breast): 13.8 µM
- TGI (SNB-19 CNS): 19.3 µM
- TGI (T-47D breast): 8.44 µM
- TGI (A549 NSCLC): 13.5 µM
- TGI (IGROV1 ovarian): 16.3 µM
- TGI (HOP-62 NSCLC): 5.03 µM
- TGI (UACC-62 melanoma): 21.6 µM
- TGI (MOLT-4 leukemia): 13.3 µM
- TGI (MDA-MB-435): 14.9 µM
- TGI (HCC-2998 colon): 3.94 µM
- TGI (M14 melanoma): 14.9 µM
- TGI (BT-549 breast): 15 µM
- TGI (HT29 colon): > 100 µM
- TGI (OVCAR-4 ovarian): 8.78 µM
- TGI (SF-539 CNS): 21.3 µM
- TGI (KM12 colon): 11.8 µM
- TGI (SK-MEL-5 melanoma): 14.8 µM
- TGI (SW-620 colon): 13.1 µM
- TGI (RPMI-8226 leukemia): 11.9 µM
- TGI (TK-10 renal): 22.4 µM
- TGI (MCF7 breast): 11.9 µM
- TGI (MALME-3M melanoma): 31.2 µM
- TGI (HL-60(TB) leukemia): 11.1 µM
- TGI (K-562 leukemia): 36.8 µM
- TGI (NCI-H226 lung): 25.6 µM
- TGI (HS 578T breast): 51.6 µM
- TGI (SF-268 CNS): 21.5 µM
- TGI (SNB-75 CNS): 14.9 µM
- TGI (RXF 393 renal): 3.72 µM
- TGI (NCI/ADR-RES ovarian): 13.3 µM
- TGI (OVCAR-3 ovarian): 5.44 µM
- TGI (CAKI-1 renal): 13.8 µM
- TGI (U251 CNS): 14.8 µM
- TGI (NCI-H23 lung): 6.68 µM
- TGI (UACC-257 melanoma): 25.1 µM
- TGI (ACHN renal): 11.6 µM
- TGI (OVCAR-8 ovarian): 15.6 µM
- TGI (SK-MEL-28 melanoma): 25.7 µM
- TGI (CCRF-CEM leukemia): 14 µM
- TGI (SN12C renal): 3.8 µM
- TGI (SK-OV-3 ovarian): 21 µM
- TGI (HCT-116 colon): 13.4 µM
- TGI (PC-3 prostate): 10.6 µM
- TGI (NCI-H460 lung): 8.57 µM
- TGI (SR leukemia): 7.84 µM
- TGI (MDA-N): 7.46 µM
- TGI (UO-31 renal): 12.7 µM
- TGI (DU-145 prostate): 10.8 µM
- TGI (LOX IMVI melanoma): 4.06 µM
- TGI (EKVX NSCLC): 14.1 µM
- TGI (NCI-H522 lung): 14.6 µM
- TGI (SF-295 CNS): 14.9 µM
- TGI (HCT-15 colon): 14.3 µM
